This is an account of results in patent US6815414B2, “Pharmaceutical compositions for the treatment of helicobacter pylori-associated disorders” (Vecta Ltd., priority 1998, dated 2004).

“Also recorded” adds a separate entry of the source. No end group written: not given here.

For experiment [1], the system named is H. pylori. Kind of experiment: H. pylori growth kinetics in liquid media (optical density). The class given is cell-based, Helicobacter pylori. To be noted: peptide added to liquid media at increasing concentrations, microaerophilic, up to 48 h.
For experiment [2], the system named is H. pylori. As to the kind of experiment: Cold inhibition assay: competition on 125I-labeled gastrin uptake by H. pylori. The class given is binding, Helicobacter pylori. To be noted: 500 nmol/l 125I-labeled gastrin, increasing concentrations of unlabeled peptide, 45 min, 37° C. Here is the method: Bacteria were incubated in the presence of 500 nmo/l ^125I-labeled gastrin and increasing concentrations of either unlabeled gastrin (G), CCK-8 (CCK), pentagastrin (Pen), somatostatin (Som) or EGF for 45 min. Bacteria were washed and radioactivity remaining in bacterial pellets was determined. One experiment representative of three.
For the cold inhibition assay, bacterial pellets were resuspended in 200 μl Brucella broth containing 500 nmol/l ^125I-labeled gastrin. Unlabeled gastrin in increasing concentrations (1250-5000 nmol/l) was added concurrently. Bacteria were incubated for 45 minutes at 37° C., after which they were extensively washed with PBS. Incorporation of ^125I-labeled gastrin was determined using a gamma counter. As controls, bacteria were incubated with ^125I-labeled gastrin (500 nmol/l) in the presence of CCK-8, pentagastrin, somatostatin or EGF at the indicated concentrations.

Experiment [3] concerns control bacteria (E. coli, S. pneumonia, C. jejuni). As to the kind of experiment: Radioactive gastrin uptake by control bacteria. The class given is cell-based. To be noted: 500 nmol/l, 45 min, 4° C. or 37° C.; autoradiography. The procedure:
(§1) H. pylori (H.P.), E. coli (E.C.), S. pneumonia (S.P.) and C. jejuni (C.J.) bacteria were incubated for 45 minutes with ^125I-labeled gastrin. Incubation was at 4° C. or 37° C. Following initial incubation, proteinase K (P.K) was added for 30 minutes, after which bacteria were washed and blotted. One experiment representative of two.
(§2) To assess labeled gastrin uptake, bacterial pellets were resuspended in 200 μl Brucella broth containing 500 nmol/l ^125I-labeled gastrin (IncStar Pharmatrade). Incubation was at either 4° C. or 37° C. for 45 minutes. Bacteria were washed three times in PBS, resuspended and incubated for 30 minutes in Brucella broth containing proteinase K (Promega) at a concentration of 25 ng/ml. Subsequently, bacteria were washed, resuspended in 100 μl PBS, out of which 10 μl were blotted on nitrocellulose filters and autoradiography performed for 7 days. Incorporated ^125I was quantitated using a gamma counter.

Experiment [4] deals with H. pylori. Kind of experiment: Radioactive gastrin uptake by H. pylori. The class given is cell-based, Helicobacter pylori. Here is the method:
as §1, §2

Regarding `C[C@H](N)C(=O)NCC(=O)N[C@H]1CSSC[C@@H](C(=O)O)NC(=O)[C@H](CO)NC(=O)[C@H]([C@@H](C)O)NC(=O)[C@H](Cc2ccccc2)NC(=O)[C@H]([C@@H](C)O)NC(=O)[C@H](CCCCN)NC(=O)[C@H](Cc2c[nH]c3ccccc23)NC(=O)[C@H](Cc2ccccc2)NC(=O)[C@H](Cc2ccccc2)NC(=O)[C@H](CC(N)=O)NC(=O)[C@H](CCCCN)NC1=O` [somatostatin, somatostatin 14], the “effect on H. pylori growth (growth curve, OD)” value in experiment [1] was “none of the peptides had an effect”. Further, the “inhibition of labeled gastrin uptake by H. pylori” value in experiment [2] is reported as “no inhibition”.
Take “^125I-labeled gastrin: 125I-labeled gastrin (IncStar Pharmatrade) used as radioligand for uptake”: the “labeling of control bacteria by labeled gastrin” value in experiment [3] was “no labeling”. In experiment [4] (500 nmol/l, 45 min, 37° C. (not at 4° C.), autoradiography), the “uptake (incorporation) of labeled gastrin by H. pylori” value is “only H. pylori incubated at 37 °C incorporated”. In experiment [4] (before proteinase K incubation), the “radioactive counts incorporated by H. pylori before proteinase K incubation” value is 311 CPM. Moreover, the “radioactive counts incorporated by H. pylori following incubation with proteinase K” value in experiment [4] (following 30 min incubation with proteinase K) was determined as 385 CPM.
On to “cholecystokinin (CCK)-8 (fragment 26-33) (DYMGWMDF-NH2; ends and bridges not checked; UniProt P06307 96-103, looked up) [CCK-8, gastrin/CCKB receptor agonist peptide comprising Trp-Met-Asp-PheNH2]”, for which the “effect on H. pylori growth (growth curve, OD)” value in experiment [1] is given as “did not stimulate bacterial growth; also recorded: none of the peptides had an effect”. Also, the “inhibition of labeled gastrin uptake by H. pylori” value in experiment [2] is on record as “competed with gastrin on the binding to H. pylori; also recorded: inhibited labeled gastrin uptake in a dose-dependent manner”.
The matching figures for “epidermal growth factor (EGF) (NSDSECPLSHDGYCLHDGVCMYIEALDKYACNCVVGYIGERCQYRDLKWWELR; Epidermal growth factor; UniProt P01133 971-1023, looked up) [growth factor peptide found within the gastric lumen, control peptide]”: “none of the peptides had an effect” and “no inhibition”.
